These are literature values, as cited in patent US9526785B2, “Pharmaceuticals for oral delivery” (Enteris BioPharma, Inc., priority 2013, dated 2016).

The conditions of series [1]: known formulations; cited from earlier work.
For series [2] the following is noted: reported; in humans; cited from earlier work.

Consider `CN(C)c1cc(NC(=O)CNC(C)(C)C)c(O)c2c1C[C@H]1C[C@H]3[C@H](N(C)C)C(O)=C(C(N)=O)C(=O)[C@@]3(O)C(O)=C1C2=O` [Tigecycline], for which the “maximal oral bioavailablity % (% F)” value in series [1] is “less than 5%”. Further, in series [2], the single dose half-life result is “approximately 20 hours”.
